US10471088B2 (GNOSIS SPA, priority 2006, dated 2019)
“And” between values parts separate entries of the source, which are not always exact repeats. Equal values may be shown once.

What was measured:
[1] = Analysis of starting material lots (SAMe salts, NADH) prior to / after mixing with calcium oxide, t = 0 and storage at 20° C. for 21 days; type: physicochemical; conditions: for permanent removal of the moisture content: mixture with calcium oxide stored for 21 days at 20° C.; for residual moisture content: starting material
[2] = Accelerated stability (stress test 5 days at 53° C.) of starting material lots prior to / after mixing with calcium oxide; type: physicochemical; conditions: for % S,S (stress test) / Moisture content % K.F. (stress test) / SAMe titre % (stress test) / Total impurities % (stress test): 5 days at 53° C.; for permanent removal of the moisture content: mixture with calcium oxide after the stress test at 53° C. for 5 days
[3] = after mixing with calcium oxide
[4] = prior to mixing with calcium oxide

Molecule	% S,S t = 0 [1, 3]	Moisture content % K.F. t = 0 [1, 3]	SAMe titre % t = 0 [1, 3]	Total impurities % t = 0 [1, 3]	Moisture content % K.F. t = 21 days at 20° C. [1, 3]	permanent removal of the moisture content [1]	% S,S t = 0 [1, 4]	Moisture content % K.F. t = 0 [1, 4]	SAMe titre % t = 0 [1, 4]	Total impurities % t = 0 [1, 4]	Moisture content % K.F. t = 21 days at 20° C. [1, 4]	% S,S (stress test) [2, 3]	Moisture content % K.F. (stress test) [2, 3]	SAMe titre % (stress test) [2, 3]	Total impurities % (stress test) [2, 3]	permanent removal of the moisture content [2]	% S,S (stress test) [2, 4]	Moisture content % K.F. (stress test) [2, 4]	SAMe titre % (stress test) [2, 4]	Total impurities % (stress test) [2, 4]	further results
S-adenosyl methionine-1,4-butene disulphonate	84.54% and 85.25% and 84.21% and 85.02% and 83.49%	1.80% and 1.84% and 1.94% and 1.89% and 1.87%	50.34% and 50.08% and 50.01% and 49.78% and 50.12%	0.57% and 0.53% and 0.49% and 0.50%	1.38% and 1.40% and 1.33% and 1.45% and 1.27%	approximately 40%	84.82% and 85.34% and 84.58% and 83.89%	1.89% and 1.94% and 2.03% and 2.01% and 1.98%	52.02% and 51.78% and 51.34% and 51.54% and 52.34%	0.67% and 0.64% and 0.44% and 0.56% and 0.45%	1.99% and 2.02% and 2.03% and 2.31%	71.89% and 70.94% and 70.34% and 70.02% and 71.32%	0.81% and 0.88% and 0.78% and 0.87% and 0.93%	50.04% and 50.00% and 50.01% and 49.89%	2.13% and 1.35% and 2.03% and 1.98% and 2.00%	approximately 60%	59.49% and 58.98% and 59.43% and 60.02% and 60.32%	1.96% and 1.93% and 2.09% and 2.21% and 2.00%	51.72% and 50.79% and 50.94% and 50.93% and 51.03%	4.63% and 4.47% and 4.06% and 4.23% and 4.05%	
C[S+](CC[C@H](N)C(=O)[O-])C[C@H]1O[C@@H](n2cnc3c(N)ncnc32)[C@H](O)[C@@H]1O (some centres unmarked) [SAMe, S-adenosyl methionine]																					residual moisture content [1]: 1-1.5 % K.F.
C[S+](CC[C@H](N)C(=O)O)C[C@H]1O[C@@H](n2cnc3c(N)ncnc32)[C@H](O)[C@@H]1O.Cc1ccc(S(=O)(=O)[O-])cc1 (some centres unmarked) [S-adenosyl methionine paratoluene sulphonate]	79.99% and 81.23% and 80.67% and 80.32% and 80.11%	1.04% and 0.95% and 0.98% and 1.16% and 1.00%	50.23% and 50.19% and 50.22% and 50.02% and 50.16%	0.94% and 1.04% and 0.66% and 0.73% and 1.03%	0.59% and 0.61% and 0.63% and 0.55% and 0.70%	approximately 40%	79.82% and 81.54% and 80.87% and 80.02% and 80.21%	1.09% and 1.04% and 1.15% and 1.08% and 1.06%	52.23% and 52.29% and 52.96% and 51.98% and 52.76%	0.94% and 1.04% and 0.66% and 0.73% and 1.03%	1.09% and 1.12% and 1.13% and 1.05% and 1.03%	65.79% and 67.25% and 66.47% and 65.43% and 66.56%	0.35% and 0.38% and 0.43% and 0.41% and 0.39%	49.98% and 49.87% and 50.09% and 50.00% and 49.81%	2.89% and 3.02% and 3.17% and 2.78% and 2.65%	approximately 60%	55.79% and 55.28% and 56.21% and 56.31% and 56.12%	0.99% and 1.00% and 1.09% and 1.05% and 1.03%	49.58% and 49.99% and 51.19% and 50.84% and 50.11%	4.34% and 5.02% and 5.17% and 5.54% and 4.55%	
NC(=O)C1=CN([C@@H]2O[C@H](COP(=O)(O)OP(=O)(O)OC[C@H]3O[C@@H](n4cnc5c(N)ncnc54)[C@H](O)[C@@H]3O)[C@@H](O)[C@H]2O)C=CC1 [NADH]		6.44% and 7.23% and 6.87% and 6.21% and 6.33%			4.01% and 4.39% and 3.98% and 3.20% and 4.32%	approximately 40%		6.66% and 7.09% and 5.94% and 6.45% and 6.38%			6.34% and 6.87% and 5.76% and 6.32%		3.23% and 3.54% and 3.10% and 3.49% and 3.45%		2.67% and 3.14% and 3.02% and 2.45% and 3.54%	approximately 60%		6.23% and 6.54% and 5.00% and 6.09% and 6.05%		8.55% and 7.34% and 7.02% and 7.17% and 7.54%	NADH (sodium salt) titre % t = 0 ([1]; after mixing with 10% of calcium oxide): 83.93 (*) % and 84.23 (*) % and 83.95 (*) % and 84.53 (*) % and 85.32 (*) %; NADH (sodium salt) titre % t = 0 [1, 4]: 92.73% and 92.23% and 92.45% and 92.43% and 91.98%; residual moisture content [1]: 5-7 % K.F.; NADH (sodium salt) titre % t = 0 (stress test) [2, 3]: 80.56% and 82.56% and 82.49% and 81.19% and 82.34%; NADH (sodium salt) titre % t = 0 (stress test) [2, 4]: 83.11% and 84.58% and 83.99% and 82.19% and 83.84%
